According to patent US20170114021A1, “HALOGEN-SUBSTITUTED COMPOUNDS” (priority 2014, published 2017):

Experiments:
Boophilus microplus = Boophilus microplus injection test (BOOPMI Inj); assay type: in vivo; settings: application rate 4 μg/animal; injection into abdomen
Method: Boophilus microplus—Injection Test (BOOPMI Inj) Solvent: dimethyl sulphoxide
To produce a suitable preparation of active compound, 10 mg of active compound are mixed with 0.5 ml of solvent and the concentrate is diluted with solvent to the desired concentration.
1 μl of the active compound solution is injected into the abdomen of 5 engorged adult female cattle ticks (Boophilus microplus). The animals are transferred into dishes and kept in a climate-controlled room.
The activity is assessed after the desired time by laying of fertile eggs. Eggs which are not visibly fertile are stored in a climate-controlled cabinet until the larvae hatch after about 42 days. An efficacy of 100% means that none of the ticks has laid any fertile eggs; 0% means that all the eggs are fertile.

Myzus persicae = Myzus persicae spray test (MYZUPE); assay type: in vivo; settings: application rate 100 g/ha; Chinese cabbage leaf discs; after 6 days
Method: Myzus persicae—Spray Test (MYZUPE) Solvent: 78 parts by weight of acetone • • 1.5 parts by weight of dimethylformamide Emulsifier: alkylaryl polyglycol ether
(§1) To produce a suitable preparation of active compound, 1 part by weight of active compound is dissolved using the specified parts by weight of solvent and made up with water containing an emulsifier concentration of 1000 ppm until the desired concentration is attained. To produce further test concentrations, the preparation is diluted with emulsifier-containing water.
Discs of Chinese cabbage leaves (Brassica pekinensis) infested by all stages of the green peach aphid (Myzus persicae) are sprayed with an active compound preparation of the desired concentration.
After 6 days, efficacy in % is determined. 100% means that all the aphids have been killed; 0% means that no aphids have been killed.

Amblyomma hebraeum = assay: Amblyomma hebaraeum test (AMBYHE), tick nymph immersion; assay type: in vivo; settings: application rate 20 ppm; tick nymphs; after 42 days
Method: Amblyomma hebaraeum Test (AMBYHE) Solvent: dimethyl sulphoxide
To produce a suitable preparation of active compound, 10 mg of active compound are mixed with 0.5 ml of dimethyl sulphoxide, and the concentrate is diluted with water to the desired concentration.
Tick nymphs (Amblyomma hebraeum) are placed into perforated plastic beakers and immersed in the desired concentration for one minute. The ticks are transferred on filter paper into a Petri dish and stored in a climate-controlled cabinet.
After 42 days, the kill in % is determined. 100% means that all of the ticks have been killed; 0% means that none of the ticks have been killed.

Ctenocephalides felis = Ctenocephalides felis oral test (CTECFE); assay type: in vivo; settings: application rate 20 ppm in citrated cattle blood; after 2 days
Method: Ctenocephalides felis—Oral Test (CTECFE) Solvent: dimethyl sulphoxide
To produce a suitable preparation of active compound, 10 mg of active compound are mixed with 0.5 ml of dimethyl sulphoxide. Dilution with citrated cattle blood gives the desired concentration.
About 20 unfed adult cat fleas (Ctenocephalides felis) are placed into a chamber which is closed at the top and bottom with gauze. A metal cylinder whose bottom end is closed with parafilm is placed onto the chamber. The cylinder contains the blood/active compound preparation, which can be imbibed by the fleas through the parafilm membrane.
After 2 days, the kill in % is determined. 100% means that all of the fleas have been killed; 0% means that none of the fleas have been killed.

Tetranychus urticae = Tetranychus urticae spray test, OP-resistant (TETRUR); assay type: in vivo; settings: application rate 100 g/ha; bean leaf discs; after 6 days
Method: Tetranychus urticae—Spray Test, OP-Resistant (TETRUR) Solvent: 78.0 parts by weight of acetone • • 1.5 parts by weight of dimethylformamide Emulsifier: alkylaryl polyglycol ether
as §1
Discs of bean leaves (Phaseolus vulgaris) infested by all stages of the greenhouse red spider mite (Tetranychus urticae) are sprayed with an active ingredient formulation of the desired concentration.
After 6 days, efficacy in % is determined. 100% means that all the spider mites have been killed; 0% means that no spider mites have been killed.

[1] = log P by HPLC on reversed-phase column (C18), EEC Directive 79/831 Annex V.A8; assay type: physicochemical
Method: ^a) Unless indicated otherwise, the following method was used to determine the log P values and masses: The determination of the given log P values was carried out in accordance with EEC Directive 79/831 Annex V.A8 by HPLC (High Performance Liquid Chromatography) on a reversed-phase column (C18). Agilent 1100 LC system; 50*4.6 Zorbax Eclipse Plus C18 1.8 micron; mobile phase A: acetonitrile (0.1% formic acid); mobile phase B: water (0.09% formic acid); linear gradient from 10% acetonitrile to 95% acetonitrile in 4.25 min, then 95% acetonitrile for a further 1.25 min; oven temperature 55° C.; flow rate: 2.0 ml/min. Mass detection is effected by means of an Agilend MSD system.

Spodoptera frugiperda = Spodoptera frugiperda spray test (SPODFR); assay type: in vivo; settings: application rate 100 g/ha; maize leaf discs; after 7 days
Method: Spodoptera frugiperda—Spray Test (SPODFR)
Solvent: 78.0 parts by weight of acetone • • 1.5 parts by weight of dimethylformamide Emulsifier: alkylaryl polyglycol ether
as §1
Leaf discs of maize (Zea mays) are sprayed with an active compound preparation of the desired concentration and, after drying, populated with caterpillars of the armyworm (Spodoptera frugiperda).
After 7 days, efficacy in % is determined. 100% means that all the caterpillars have been killed; 0% means that no caterpillars have been killed.

[2] = tested on: Boophilus microplus Parkhurst strain, SP-resistant; assay: Boophilus microplus dip test (BOOPMI Dip); assay type: in vivo; settings: application rate 20 ppm; engorged adult female cattle ticks; after 7 days
Method: Boophilus microplus—Dip Test (BOOPMI Dip) Test animals: cattle ticks (Boophilus microplus) Parkhurst strain, SP-resistant Solvent: dimethyl sulphoxide
10 mg of active compound are dissolved in 0.5 ml of dimethyl sulphoxide. To produce a suitable formulation, the active compound solution is diluted with water to the concentration desired in each case.
This active compound preparation is pipetted into tubes. 8-10 engorged adult female cattle ticks (Boophilus microplus) are transferred into a further tube with holes. The tube is immersed into the active compound preparation, and all the ticks are completely wetted. After the liquid has run out, the ticks are transferred on filter discs into plastic dishes and stored in a climate-controlled room.
Efficacy is assessed after 7 days by laying of fertile eggs. Eggs which are not visibly fertile are stored in a climate-controlled cabinet until the larvae hatch after about 42 days. An efficacy of 100% means that none of the ticks has laid any fertile eggs; 0% means that all the eggs are fertile.

**Q.** Which results are given for “N-{2-fluoro-5-[2′-methyl-5′-(pentafluoroethyl)-4′-(trifluoromethyl)-2′H-1,3′-bipyrazol-4-yl]benzyl}propanamide [Ic-1]”?
**A.** efficacy (laying of fertile eggs) (Boophilus microplus): 100%; efficacy (Myzus persicae): 90%; efficacy (kill) (Amblyomma hebraeum): 100%; efficacy (kill) (Ctenocephalides felis): 100%; efficacy (Tetranychus urticae): 100%; log P [1]: 3.83; efficacy (Spodoptera frugiperda): 100%; efficacy (laying of fertile eggs) [2]: 100%
